{"source": "paper PMC6838151", "about": "(Scientific Reports, 2019)", "key": {"C. albicans CAF2-1 [1]": {"tested_on": "C. albicans CAF2-1", "assay": "microbe, parasite or virus in culture", "type": "cell-based, Candida albicans", "conditions": "Candida albicans, CAF21, read-out: Viability of C. albicans CAF2-1", "experimental": "The synergistic effects of KeOP/KeP with Flc were determined using the M27-A3 method with modifications. Flc and KeOP/KeP stock solutions in DMSO (10 mM) were (alone and simultaneously) diluted in RPMI-1640 medium to obtain final concentrations of^1/8; ^1/4; ^1/2; 1 × MIC50 towards C. albicans CAF2-1 strain in microdilution sterile plates (Sarstedt). Statistical significance analysis was performed using Student’s t-test ([…], unpaired) comparing viability in the presence of corresponding Flc concentrations with/without KeOP/KeP."}, "C. albicans DSY1050": {"tested_on": "C. albicans DSY1050", "assay": "microbe, parasite or virus in culture", "type": "cell-based, Candida albicans", "conditions": "Candida albicans, DSY1050, 48 h", "from_the_text": "(§1) The C. albicans CAF2-1 (Genotype/Description: ura3Δ::imm434/URA3[89]) and DSY1050 (Genotype/Description: cdr1Δ::hisG/cdr1Δ::hisG/cdr2Δ::hisG/cdr2Δ::hisG/mdr1Δ::hisG-URA3-hisG/mdr1Δ::hisG[90]) strains used in this study were generous gift from D. Sanglard (Lausanne, Switzerland)[91],[92] whereas C. albicans B3 and Gu4 (Genotype/Description: clinical isolates fluconazole sensitive)[93]), B4 (Genotype/Description: Clinical isolate fluconazole resistant due to the overexpression of MDR1[93]) and Gu5 (Genotype/Description: Clinical isolate fluconazole resistant due to the overexpression of CDR1 and CDR2[93]) were a generous gift from prof. S. Milewski (Gdańsk, Poland)[94] and prof. J. Morschhäuser (Wurzburg, Germany)[93]. All strains were grown at 37 °C on Sabouraud medium (Biomerieux).\n(§2) The antifungal activity was determined on the 96-well polystyrene microtiter plates (Sarstedt) according to Clinical and Laboratory Standards Institute M27-A3[95]. […] The compounds were dissolved in DMSO (10 mM) and then serially diluted in RPMI-1640 (ThermoFisher) medium to obtain the final concentration range. Inocula of all strains were prepared as suspensions with turbidity of 0.5 McFarland standard in sterile 0.85% saline and diluted in RPMI-1640. After inoculation, each well contained appr. 5 × 10^2 CFU/mL. The plates were cultivated for 48 h at 37 °C. Optical density was measured at A490nm using a microplate reader ASYS UVM 340 (Biogenet)."}, "C. albicans CAF2-1 [2]": {"tested_on": "C. albicans CAF2-1", "assay": "microbe, parasite or virus in culture", "type": "cell-based, Candida albicans", "conditions": "Candida albicans, CAF21, 48 h", "from_the_text": "as §1, §2"}, "C. albicans B4": {"tested_on": "C. albicans B4", "assay": "microbe, parasite or virus in culture", "type": "cell-based, Candida albicans", "conditions": "Candida albicans, B4, 48 h", "from_the_text": "as §1, §2"}, "C. albicans Gu5": {"tested_on": "C. albicans Gu5", "assay": "microbe, parasite or virus in culture", "type": "cell-based, Candida albicans", "conditions": "Candida albicans, GU5, 48 h", "from_the_text": "as §1, §2"}, "[3]": {"tested_on": "hASCs (human adipose-derived stromal cells)", "assay": "Cytotoxicity IC50, TOX-8 resazurin assay, hASCs, 24 h", "type": "cell-based", "experimental": "Human Adipose Tissue-derived Stem Cells (hASCs) were isolated from subcutaneous adipose tissue fragments harvested from non-diabetic female donors (age range 33–38, n = 2) during standard surgical procedure of total hip arthroplasty. Immediately after collection of tissue, the samples were placed in sterile tissue-transport medium (Hank’s Balanced Salt Solution (HBSS) supplemented with 1% Penicillin/Streptomycin/Amphotericin B solution (P/S/A). Mesenchymal stromal cell isolation was performed using enzymatic digestion of extracellular matrix with collagenase type I. Before digestion, tissue specimens were washed twice with HBSS and incubated in collagenase type I solution (1 mg/mL) at 37 °C for 40 min. The digest was subsequently centrifuged (1200 × g; 10 minutes; room temperature) and the cell pellet was resuspended in Dulbecco’s modified Eagle’s medium (DMEM) with Nutrient F-12 Ham, 10% of Fetal Bovine Serum (FBS), and 1% of P/S/A, transferred to a culture flask, and kept in culture under optimal conditions (37 °C in a humidified atmosphere of 5% CO2). The medium was refreshed every 2–3 days. At 80–90% confluence, the cells were passaged using trypsin solution (TrypLE Express, Life Technologies, California, USA). At passage 3, hASCs were collected and cellular phenotype was confirmed by the high expression of markers CD44, CD29, CD73, CD105 and low expression of CD45. Moreover, the trilineage differentiation capacity of ASCs was confirmed as previously described.\nThe IC50 values were determined using in vitro Toxicology TOX-8 Assay Kit (resazurin based) according to the manufacturer’s protocol. For this assay, cells were seeded in a 96-well plate at a density of 5 × 10^3 cells/well. The cells were pre-incubated in drug-free complete medium for 24 h before adding various concentrations of the compounds to be investigated. Stock solutions of the compounds were prepared in DMSO following serial dilutions in DMEM with Nutrient F-12 Ham complete medium. The cells exposure period was 24 h. After that time media were replaced with 10% v/v resazurin dye solution in fresh complete culture medium. Incubation was carried out for 2 h at 37 °C in the CO2 incubator. Reduction of the dye was measured spectrophotometrically at 600 nm and 690 nm reference wavelength (Epoch, Biotek). Absorbance measurements allowed the determination of viable treated cells relative to untreated controls using the inflection point of a dose-response graph. IC50 values were estimated as duplicates of triplicate readings in two independent experiments."}, "[4]": {"conditions": "cited from earlier work"}, "C. albicans Gu4": {"tested_on": "C. albicans Gu4", "assay": "microbe, parasite or virus in culture", "type": "cell-based", "conditions": "Candida albicans, GU4, 48 h", "from_the_text": "as §1, §2"}, "C. albicans B3": {"tested_on": "C. albicans B3", "assay": "microbe, parasite or virus in culture", "type": "cell-based", "conditions": "Candida albicans, B3, 48 h", "from_the_text": "as §1, §2"}}}
{"smiles": "OC(Cn1cncn1)(Cn1cncn1)c1ccc(F)cc1F", "note": "[Flc, fluconazole, reference compound]", "values": [{"measurement": "viability at 0.78 µM", "setting": "C. albicans CAF2-1 [1]", "result": "86.9 ± 7.84", "unit": "%"}, {"measurement": "viability at 1.56 µM", "setting": "C. albicans CAF2-1 [1]", "result": "71.3 ± 13.9", "unit": "%"}, {"measurement": "viability at 3.13 µM", "setting": "C. albicans CAF2-1 [1]", "result": "73.8 ± 4.35", "unit": "%"}, {"measurement": "viability at 6.25 µM", "setting": "C. albicans CAF2-1 [1]", "result": "38 ± 8.94", "unit": "%"}, {"measurement": "MIC50", "setting": "C. albicans DSY1050", "result": 0.78, "unit": "µM"}, {"measurement": "MIC50", "setting": "C. albicans CAF2-1 [2]", "result": 6.25, "unit": "µM"}, {"measurement": "MIC50", "setting": "C. albicans B4", "result": 50, "unit": "µM"}, {"measurement": "MIC50", "setting": "C. albicans Gu5", "result": "> 200", "unit": "µM"}, {"measurement": "IC50 (cytotoxicity, hASCs viability)", "setting": "[3]", "result": "not cytotoxic in the tested concentration range"}, {"measurement": "fold less active in vitro than Ke", "setting": "[4]", "result": "approximately 16 fold"}, {"measurement": "MIC50", "setting": "C. albicans Gu4", "result": 6.25, "unit": "µM"}, {"measurement": "MIC50", "setting": "C. albicans B3", "result": 6.25, "unit": "µM"}]}
